# Source: patent publication US12414937B2, “Local and regional anesthesia and analgesia” (UNIVERSITY OF LOUISVILLE RESEARCH FOUNDATION, INC., priority 2015, dated 2025)
# Key:
# pseudocholinesterase = molecular target: T1, pseudocholinesterase (Homo sapiens, UniProt P06276); conditions: plasma; cited from earlier work
# T1 construct: hydrolyzed at the ester linkage in plasma by pseudocholinesterase; host or cells: plasma
# [1] = system: injury-sensitized dissociated rat sensory neurons; test: Patch-clamp electrophysiology, action potentials induced by depolarizing current; type: cell-based
# Method: Studies were conducted to examine the effect of Atip administration on action potentials induced by depolarizing current. Electrophysiology in injury-sensitized dissociated rat sensory neurons was recorded with patch-clamp, using methods previously described (5).
# [2] = system: sensory axons (Dorsal Root); test: Compound action potential (CAP) conduction block, sensory CAP recorded at dorsal root, drug applied to lumbar plexus exposure; type: in vivo, rats
# Source text: (§1) A surgical preparation was used to determine whether Atip acts differently on sensory or motor neurons. The procedures used were similar to those described in Petruska et al., 1998 (Experimental Brain Research 121:379-390). Briefly, adult rats received general anesthesia with ketamine/xylazine. The jugular vein, carotid artery, and trachea were intubated for the purposes of administering supplementary anesthesia, monitoring of blood pressure, and measuring end-expired CO2, respectively. Normal body temperature was maintained within 1° C. via a water-based thermal blanket. […]
# (§2) Compound action potentials (CAPs) were generated by stimulating the sciatic nerve branches. The CAPs propagated centrally through the lumbar plexus to the dorsal and ventral roots where the sensory and motor CAPs (sCAP and mCAP) were detected with the recording electrodes. Effectiveness of conduction block was assessed by measuring the properties of the CAPs (peak and area) conducted through the lumbar plexus exposure and treated with drug compared to the CAPs in the control condition (vehicle or saline in the lumbar plexus exposure).
# (§3) With reference to FIG. 2B, activity in response to electrical stimulation of the peroneal nerve was recorded from sensory and motor fascicles (20-30 sweeps averaged per time point). […]
# small sensory axons = test: Nociceptive cutaneous trunk muscle reflex (CTMR) EMG on electrical stimulation of a treated sensory nerve; type: in vivo, rats; conditions: sensory nerve treated with Atip 20 ul, 200 uM
# Method: To address this, a different model system was used the cutaneous trunk muscle reflex (CTMR), which was previously developed and validated for use in anesthesiology and pain experimentation (4,5).
# With reference to FIG. 3B, the effects of Atip on nociceptor sensory conduction are assessed using nociceptive CTM reflex as readout.
# The CTMR in rats appears as a puckering or flicking of the back skin and is elicited only by noxious natural stimulation or by electrical stimulation of sufficient strength to recruit A-delta and C-fibers (4,6,7). Activation of only very few of these sensory axons is sufficient to elicit a CTMR, making the system a “natural amplifier” for small-diameter afferent input and resulting in reflex output detectible at the EMG and behavioral level (4,8).
# [3] = system: isolated human DRG Neurons; test: Live cell calcium imaging with electric field stimulation; type: cell-based
# Method: Live cell calcium imaging studies were conducted on isolated human DRG Neurons from post mortem donors. Cells were loaded with 3 uM Fluo 8-AM (AAT Bioquest 21081) containing 0.1% Pluronic F-127 (Sigma P2443) for 20 min. The extracellular solution contained in mM (Sigma): 145 NaCl (S3014), 3 KCl (P3911), 2 CaCl2) (C3881), 1 MgCl2 (M9272), 10 HEPES (H3375), 10 glucose (G5767) adjusted to pH 7.4 with NaOH (72068). Fluo-8-loaded cells were excited at 480 nm and emission was collected at 520 nm with a pcoEDGE sCMOS camera (PCO) mounted on an inverted microscope (Olympus IX71).
# For Electric Field stimulation (EFs), images were acquired at 100 Hz for 2.5 sec applying simultaneously a train of 10 pulses (5 Hz, 10 ms). After the recording of the baseline profile at Low (1.5 to 2.0 V) and High (2.5 to 3.0 V) Voltage, a pre incubation of […] of the inhibitor is applied to the well before repeating the EFs procedure (Atip 100 uM, Atip 300 uM, Lidocaine 200 uM (Sigma L7757)). The cells that had less than 50% of the pulse response vs the baseline condition was considered inhibited. A washout of 10 min by perfusion was performed after the last EFs procedure.
# Lidocaine was first prepared in stock solution using Ethanol (Sigma 459844), Atip was prepared in stock solution using DMSO (Sigma D8418). Image acquisition and data analysis were performed using MetaMorph software (Molecular Devices).
# Neurons with less than 50% of the baseline response to electrical field stimulation were considered inhibited. 300 uM Atip blocked activity in 100% of the cells; 100 uM Atip achieved a 62% blockade.
# [4] = system: wild type, α2AAR knockout and α2CAR knock out mice; test: Paw withdrawal in response to strong pinch after subcutaneous plantar injection; type: in vivo; conditions: 5 mM subcutaneously in right plantar paw
# Method: Studies testing the effect of Atip were also conducted in α2 receptor subunit knock-out mice. α2AAR knockout and α2CAR knock out mice were used in the study. Animals were injected with 5 mM Atip subcutaneously in their right plantar paw, and vehicle into the left plantar paw. They then received strong pinch to the paw skin and pads on each foot. Right and left paw withdrawal in response to the pinch was assessed.
# sensory axons = test: Sensory CAP recordings with IV-administered Atip after Dex; type: in vivo, rats; conditions: doses indicated for use as α-2 AR antagonist
# [5] = system: motor axons (Ventral Root); test: Compound action potential (CAP) conduction block, motor CAP recorded at ventral root, drug applied to lumbar plexus exposure; type: in vivo, rats; conditions: Atip applied to the nerve; FIGS. 2A-3B together
# Source text: as §1, §2, §3
# hTCEpi cells = test: Cytotoxicity, Alamar Blue cell viability assay; type: cell-based, human; conditions: 24 or 48 hours incubation
# Method: Cytotoxicity studies were performed using Human telomerase-immortalized human corneal epithelial cells (hTCEpi cells—obtained through Genon Corp., Menlo Park, CA, USA). The cells were plated at a density of 30,000 cells per well of a 96-well dish in growth media (Defined Keratinocyte Media with growth supplement, Invitrogen, Grand Island, NY, USA). After 24 hours of recovery, cells were treated with either growth media alone or growth media supplemented with 0.5% DMSO (vehicle), the indicated concentration of ATIP, or 0.5% proparacaine (Akorn, Forest Lake, IL). Cells were incubated for 24 or 48 hours at 37° C. in 5% CO2. Cell viability was assessed using an Alamar Blue Assay (Thermo Fisher, Waltham, MA, USA).
# With reference to FIGS. 5A and 5B, data are plotted as the fraction of viable cells compared to growth media alone+/−S.E.M (n=3).
# T1 sequence (P06276 29-602): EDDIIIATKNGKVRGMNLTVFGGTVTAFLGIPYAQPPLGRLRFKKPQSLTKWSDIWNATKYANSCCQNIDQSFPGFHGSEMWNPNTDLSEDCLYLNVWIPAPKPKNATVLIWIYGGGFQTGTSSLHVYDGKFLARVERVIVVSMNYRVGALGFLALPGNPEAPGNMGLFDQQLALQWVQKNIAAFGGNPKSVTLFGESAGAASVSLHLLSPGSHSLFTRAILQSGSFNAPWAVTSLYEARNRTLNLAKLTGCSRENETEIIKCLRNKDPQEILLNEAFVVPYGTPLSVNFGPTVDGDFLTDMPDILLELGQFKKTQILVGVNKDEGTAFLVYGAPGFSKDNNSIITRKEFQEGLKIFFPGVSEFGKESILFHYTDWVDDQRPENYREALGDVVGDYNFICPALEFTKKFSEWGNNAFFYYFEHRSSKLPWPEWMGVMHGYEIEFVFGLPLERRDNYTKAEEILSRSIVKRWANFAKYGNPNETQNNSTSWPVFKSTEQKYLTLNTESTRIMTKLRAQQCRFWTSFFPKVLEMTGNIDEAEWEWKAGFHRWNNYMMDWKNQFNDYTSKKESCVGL
structure (smiles),measurement,setting,value
CCN(CC)CCOC(=O)c1ccc(N)cc1Cl [2-chloroprocaine],"rate of hydrolysis at the ester linkage, relative",pseudocholinesterase,about four times faster than procaine
"CCC1(c2cnc[nH]2)Cc2ccccc2C1 [Atip, 4(5)-(2,3-dihydro-2-ethyl-1H-inden-2-yl)imidazole]",action potentials induced by depolarizing current,[1],rapidly blocked
same,resting membrane potential,[1],does not alter the resting membrane potential
same,reversibility of conduction block (CAP peak and area),"[2]; 100 ul Atip undiluted clinical dose 5 mg/ml topically over the nerve, then wash-out",reversible
same,conduction in large and small sensory axons,"[2]; Atip applied to the nerve, FIGS. 2A-3B together",strongly blocks conduction
same,"EMG of CTMR, nociceptor sensory conduction",small sensory axons,blocks activity in small sensory axons
same,nerve toxicity (return of EMG),small sensory axons; not washed out,does not poison the nerve
same,cells with blocked activity (less than 50% of baseline response to electrical field stimulation),[3]; 100 uM,62%
same,cells with blocked activity (less than 50% of baseline response to electrical field stimulation),[3]; 300 uM,100%
same,withdrawal of the Atip-injected right paw on pinch,[4]; wild type mice,no withdrawal of the right paw
same,withdrawal of the Atip-injected right paw on pinch,[4]; α2AAR knockout mice,no withdrawal of the right paw
same,withdrawal of the Atip-injected right paw on pinch,[4]; α2CAR knock out mice,no withdrawal of the right paw
same,sensory conduction block by IV-administered Atip,sensory axons,does not itself block conduction
same,conduction in motor axons,[5],relative sparing of conduction
same,toxicity (fraction of viable cells compared to growth media alone) versus 0.5% proparacaine,hTCEpi cells,reduced toxicity
"CCN(CC)CC(=O)Nc1c(C)cccc1C [lidocaine, Lidocaine]",efficacy of blockade compared with Atip,"[3]; 200 uM, therapeutic concentration","less efficacious than the highest tested concentration of Atip, and similar to the lowest concentration of Atip tested"
CCN(CC)CCOC(=O)c1ccc(N)cc1 [procaine],"rate of hydrolysis at the ester linkage, relative",pseudocholinesterase,about four times faster than tetracaine
